*1 amine or outer side, *2 acyl side, *3 side chain or, on linkers, in order; H or OH if unused. Where a SMILES comes first, the peptide text is derived from it. Bridges are numbered along the chain shown (N, C = ends). [ ]: non-standard residue; d: D form. The star is where a group is joined. NMePhe(2-(4-MorPh),5-Cl) = CN[C@@H](Cc1cc(Cl)ccc1-c1ccc(N2CCOCC2)cc1)C(=O)O; X62 = CN1CCC[C@H](c2ccc(-c3ccc(Cl)cc3C[C@@H](C(=O)[*:2])N(C)[*:1])cc2)C1; X87 = CN([C@@H](Cc1cc(F)ccc1-c1ccc(N2CCOCC2)cc1)C(=O)[*:2])[*:1]; X84 = CC(=O)N1CCC(c2ccc(Cl)cc2C[C@@H](C(=O)[*:2])N(C)[*:1])CC1; X76 = CN([C@@H](Cc1cc(Cl)ccc1-c1cnn2cccnc12)C(=O)[*:2])[*:1]; NMehhhLys(Me) = CN([C@@H](CCCCCCCN(C)[*:3])C(=O)[*:2])[*:1]; X22 = CN([C@@H](Cc1cc(Cl)ccc1-c1cnn(C)c1)C(=O)[*:2])[*:1]; NMe(hhhLys) = CN([C@@H](CCCCCCCN[*:3])C(=O)[*:2])[*:1]; Cyclobutanecarbonyl(1-CF3) = O=C(C1(C(F)(F)F)CCC1)*; cBuCO(3,3-F2-1-CF3) = O=C(C1(C(F)(F)F)CC(F)(F)C1)*; Pro(trans-4-F) = O=C(O)[C@@H]1C[C@@H](F)CN1; Gly(cPr) = N[C@H](C(=O)O)C1CC1
What was measured:
[1] = test system: OVCAR3 cells; assay: MTT proliferation assay, OVCAR3; format: cell-based; conditions: 5 days compound exposure, 1:3 serial dilution starting at 10 μM;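 note: compound given as an 8- or 10-point series, one day after plating, with exposure covering roughly 3-4 cell doublings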
[2] = test system: WI-38 cells; assay: MTT proliferation assay, WI-38; format: cell-based; conditions: 3 days compound exposure, 1:3 serial dilution starting at 10 μM;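 note: Eight- or ten-point dilution series, with exposure length chosen to span about three to four cell doublings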
[3] = molecular target: T1, CyclinE1/CDK2 (Homo sapiens, UniProt P24864); assay: Fluorescence Polarization (FP) competitive binding assay, Cyclin E1/Cdk2; conditions: 10 nM Cyclin E1/Cdk2, 2 nM FAM probe; average of 2-3 independent experiments; read-out: Cyclin E FP IC50;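 note: readings taken after two-hour equilibration at room temperature in HEPES buffer with NaCl, DTT, NP-40 and BSA, IC50 fitted from eight-concentration serial dilution series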
T1 construct: purchased Eurofins, discovery 14-475

[4] = molecular target: T2, CyclinA2/CDK2 (Homo sapiens, UniProt P20248); assay: Fluorescence Polarization (FP) competitive binding assay, Cyclin A2/Cdk2; conditions: 8 nM Cyclin A2/Cdk2, 2 nM FAM probe; average of 2-3 independent experiments; read-out: Cyclin A FP IC50;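 note: plates equilibrated two hours at room temperature before polarization reading, IC50 fitted from eight-concentration compound titration curves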
T2 construct: purchased CRELUX Protein Services

[5] = test system: NCI-H1048 cells; assay: MTT proliferation assay, NCI-H1048; format: cell-based; conditions: 5 days compound exposure, 1:3 serial dilution starting at 10 μM;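 note: Dose-response in 96-well plates over 8 or 10 concentration points, with exposure spanning 3-4 cell doublings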
[6] = molecular target: T3, CyclinB1/CDK1 (Homo sapiens, UniProt P14635); assay: Fluorescence Polarization (FP) competitive binding assay, Cyclin B1/Cdk1; conditions: 10 nM Cyclin B1/Cdk1, 2 nM FAM probe; average of 2-3 independent experiments; read-out: Cyclin B FP IC50;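 note: fluorescence polarization read after equilibration at room temperature, with IC50 taken from serially diluted dose-response curves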
T3 construct: purchased Eurofins, discovery 14-450

| SMILES | GI50 [1] [µM] | GI50 [2] [µM] | IC50 [3] [µM] | IC50 [4] [µM] | GI50 [5] [µM] | IC50 [6] [µM] |
| --- | --- | --- | --- | --- | --- | --- |
| CC(C)C[C@@H]1NC(=O)[C@@H](N(C)C(=O)[C@@H](NC(=O)[C@@H]2C[C@@H](F)CN2C(=O)C2(C(F)(F)F)CC(F)(F)C2)C2CC2)CCCCCCCN(C)C(=O)[C@H](Cc2cc(Cl)ccc2-c2ccc([C@H]3CCCN(C)C3)cc2)N(C)C1=O [Example 412] ({cBuCO(3,3-F2-1-CF3)}-[Pro(trans-4-F)][Gly(cPr)][NMehhhLys(Me)]L[X62]; lactam 3-C) | 0.01 | 1.06 | 1.39 | 0.02 | 0.01 | 0.02 |
| CC(C)C[C@@H]1NC(=O)[C@@H](N(C)C(=O)[C@H](CCC(=O)N(C)C)NC(=O)[C@@H]2C[C@@H](F)CN2C(=O)C2(C(F)(F)F)CC(F)(F)C2)CCCCCCCN(C)C(=O)[C@H](Cc2cc(Cl)ccc2-c2ccc(N3CCOCC3)cc2)N(C)C1=O [Example 419, (S)—N1-((3S,6S,9S)-3-((4-chloro-4′-morpholino-[1,1′-biphenyl]-2-yl)methyl)-6-isobutyl-1,4-dimethyl-2,5,8-trioxo-1,4,7-triazacyclohexadecan-9-yl)-2-((2S,4R)-1-(3,3-difluoro-1-(trifluoromethyl)cyclobutane-1-carbonyl)-4-fluoropyrrolidine-2-carboxamido)-N1,N5,N5-trimethylpentanediamide] ({cBuCO(3,3-F2-1-CF3)}-[Pro(trans-4-F)]E(NMe2)[NMehhhLys(Me)]L[NMePhe(2-(4-MorPh),5-Cl)]; lactam 3-C) | 0.02 | 1.99 | 0.54 | 0.02 | 0.02 | 0.02 |
| CC(C)C[C@@H]1NC(=O)[C@@H](N(C)C(=O)[C@@H](NC(=O)[C@@H]2C[C@@H](F)CN2C(=O)C2(C(F)(F)F)CC(F)(F)C2)C2CC2)CCCCCCCN(C)C(=O)[C@H](Cc2cc(Cl)ccc2-c2cnn3cccnc23)N(C)C1=O [Example 297] ({cBuCO(3,3-F2-1-CF3)}-[Pro(trans-4-F)][Gly(cPr)][NMehhhLys(Me)]L[X76]; lactam 3-C) | 0.03 | 9.15 | 1.27 | 0.04 | 0.02 | 0.02 |
| CC(=O)N1CCC(c2ccc(Cl)cc2C[C@H]2C(=O)N(C)CCCCCCC[C@H](N(C)C(=O)[C@@H](NC(=O)[C@@H]3C[C@@H](F)CN3C(=O)C3(C(F)(F)F)CC(F)(F)C3)C3CC3)C(=O)N[C@@H](CC(C)C)C(=O)N2C)CC1 [Example 52] ({cBuCO(3,3-F2-1-CF3)}-[Pro(trans-4-F)][Gly(cPr)][NMehhhLys(Me)]L[X84]; lactam 3-C) | 0.01 | 13.1 | 1.13 | 0.04 | 0.01 | 0.02 |
| CC(C)C[C@@H]1NC(=O)[C@@H](N(C)C(=O)[C@@H](NC(=O)[C@@H]2C[C@@H](F)CN2C(=O)C2(C(F)(F)F)CC(F)(F)C2)C2CC2)CCCCCCCN(C)C(=O)[C@H](Cc2cc(F)ccc2-c2ccc(N3CCOCC3)cc2)N(C)C1=O [Example 337] ({cBuCO(3,3-F2-1-CF3)}-[Pro(trans-4-F)][Gly(cPr)][NMehhhLys(Me)]L[X87]; lactam 3-C) | 0.01 | 18.7 | 0.19 | 0.02 | 0.01 | 0.02 |
| Cc1nnc(-c2ccc(Cl)cc2C[C@H]2C(=O)N(C)CCCCC=CC[C@H](N(C)C(=O)[C@@H](NC(=O)[C@@H]3C[C@@H](F)CN3C(=O)C3(C(F)(F)F)CCC3)C3CC3)C(=O)N[C@@H](CC(C)C)C(=O)N2C)o1 [Example 115] | 0.06 | 11 | 0.17 | 0.04 | 0.07 | 0.02 |
| CC(C)C[C@@H]1NC(=O)[C@@H](N(C)C(=O)[C@@H](NC(=O)[C@@H]2C[C@@H](F)CN2C(=O)C2(C(F)(F)F)CCC2)C2CC2)CCCCCCCNC(=O)[C@H](Cc2cc(Cl)ccc2-c2cnn(C)c2)N(C)C1=O [Example 70] ({Cyclobutanecarbonyl(1-CF3)}-[Pro(trans-4-F)][Gly(cPr)][NMe(hhhLys)]L[X22]; lactam 3-C) | 0.01 | 10.1 | 0.29 | 0.02 | 0.01 | 0.02 |

— patent US20240408169A1 (priority 2023, published 2024)
